Source: ChEMBL document CHEMBL5661943, “ASAP - In vitro antiviral effect” (2024)
Where “and” joins values, the source holds several entries; their conditions need not be identical. Equal entries are not always repeated.

Experiments:
dengue virus type 2 [1] = assay: Functional assay to measure dose dependent changes in antiviral-drug inhibitory efficacy against Dengue virus type 2 New Guinea C in Vero E6 miRFP670 cells (cotreated with P-gp inhibitor, CP100356). Cells are treated with antiviral candidates that are serially diluted, following infection, cells are fixed. EC50 is reported via analysis of fluorescence intensity using high-content imager. The …; assay type: organism-based, Chlorocebus sabaeus, Vero C1008; conditions: Baseline response 0 %, P-gp concentration 500 nM, P-gp inhibitor CP100356
Zika virus [2] = assay: Functional CPE-based assay to measure dose dependent changes in antiviral-drug inhibitory efficacy against Zika virus MR766 in Vero E6 miRFP670 cells. Cells are treated with antiviral candidates that are serially diluted. EC50 is reported via analysis of MTS assay as a readout of CPE. The assay has been performed by KU Leuven.; assay type: organism-based, Chlorocebus sabaeus, Vero C1008; conditions: Maximum response 100 %
Zika virus [3] = assay: EC50 is reported via analysis of immunofluorescence staining. The assay has been performed by Icahn School of Medicine at Mount Sinai.; assay type: functional, organism-based, Chlorocebus sabaeus, VeroE6/TMPRSS2; conditions: Baseline response 0 %, P-gp concentration 2 uM, P-gp inhibitor Elacidar
dengue virus type 2 [4] = assay: Functional immunofluorescence assay to measure dose dependent changes in antiviral-drug inhibitory efficacy against Dengue virus type 2 Thailand/16681/84 in Vero E6/TMPRSS2 cells. Cells are treated with antiviral candidates that are serially diluted, following infection, cells are fixed. EC50 is reported via analysis of immunofluorescence staining. The assay has been performed by Icahn School of Medicine at Mount Sinai.; assay type: organism-based, Chlorocebus sabaeus
dengue virus type 2 [5] = assay: Functional immunofluorescence assay to measure dose dependent changes in antiviral-drug inhibitory efficacy against Dengue virus type 2 Thailand/16681/84 in Vero E6/TMPRSS2 cells (cotreated with P-gp inhibitor, Elacridar). Cells are treated with antiviral candidates that are serially diluted, following infection, cells are fixed. EC50 is reported via analysis of immunofluorescence staining. The assay has been performed by Icahn School of Medicine at Mount Sinai.; assay type: organism-based, Chlorocebus sabaeus, VeroE6/TMPRSS2
Zika virus [6] = assay: Functional immunofluorescence assay to measure dose dependent changes in antiviral-drug inhibitory efficacy against Zika virus PRVABC59 in Vero E6/TMPRSS2 cells. Cells are treated with antiviral candidates that are serially diluted, following infection, cells are fixed. EC50 is reported via analysis of immunofluorescence staining. The assay has been performed by Icahn School of Medicine at Mount Sinai.; assay type: organism-based, Chlorocebus sabaeus
Zika virus [7] = assay: Functional CPE-based assay to measure dose dependent changes in antiviral-drug inhibitory efficacy against Zika virus MR766 in Vero E6 miRFP670 cells (cotreated with P-gp inhibitor, CP100356). Cells are treated with antiviral candidates that are serially diluted. EC50 is reported via analysis of MTS assay as a readout of CPE. The assay has been performed by KU Leuven.; assay type: organism-based, Chlorocebus sabaeus, Vero C1008; conditions: Baseline response 0 %, Maximum response 100 %, P-gp inhibitor CP100356

C[C@@]1(O)[C@H](O)[C@@H](CO)O[C@H]1n1ccc2c(N)ncnc21 [BETA-2'-C-METHYL-7-DEAZA-ADENOSINE]
EC90 (dengue virus type 2 [1]; EC90 CI (lower) 3.48 uM, EC90 CI (upper) 7.993 uM, Hill slope -1.843, Maximum measured 93.524 %, Maximum response 100 %, Minimum measured 0.518 %, R squared 0.959): 57.2 µM
EC90 (dengue virus type 2 [1]; EC90 CI (lower) 4.11 uM, EC90 CI (upper) 8.283 uM, Hill slope -1.641, Maximum measured 89.89 %, Maximum response 100 %, Minimum measured 0.257 %, R squared 0.971): 84.9 µM
EC90 (dengue virus type 2 [1]; EC90 CI (lower) 6.077 uM, EC90 CI (upper) 11.974 uM, Hill slope -2.703, Maximum measured 104.698 %, Maximum response 100 %, Minimum measured 1.385 %, R squared 0.989): 43.4 µM
EC90 (dengue virus type 2 [1]; EC90 CI (lower) 9.48 uM, EC90 CI (upper) 152.006 uM, Hill slope -3.766, Maximum measured 162.932 %, Maximum response 100 %, Minimum measured 1.715 %, R squared 0.543): 122 µM
EC90 (dengue virus type 2 [1]; EC90 CI (lower) 10.134 uM, EC90 CI (upper) 21.901 uM, Hill slope -2.086, Maximum measured 107.044 %, Maximum response 100 %, Minimum measured 0.795 %, R squared 0.961): 122 µM
EC90 (dengue virus type 2 [1]; EC90 CI (lower) 13.312 uM, EC90 CI (upper) 68.915 uM, Hill slope -3.556, Maximum measured 71.93 %, Maximum response 65.616 %, Minimum measured 1.236 %, R squared 0.774): 104 µM
EC90 (dengue virus type 2 [1]; EC90 CI (lower) 21.742 uM, EC90 CI (upper) 34.481 uM, Hill slope -3.397, Maximum measured 108.212 %, Maximum response 100 %, Minimum measured 0.235 %, R squared 0.983): 99.8 µM
EC90 (Zika virus [2]; Baseline response 0 %, EC90 CI (lower) 15.507 uM, EC90 CI (upper) 28.219 uM, Hill slope 1.884, Maximum measured 104.267 %, Minimum measured 0.699 %, R squared 0.993): 20.9 µM
EC90 (Zika virus [2]; Zika virus, Vero C1008, Baseline response 0 %, Hill slope 0.758, Maximum measured 14.246 %, Minimum measured -0.672 %, R squared 0.091): > 50 µM
EC90 (Zika virus [2]; Zika virus, Vero C1008, Baseline response 0 %, Hill slope 2.277, Maximum measured 74.443 %, Minimum measured -3.247 %, R squared 0.993): > 50 µM
EC90 (Zika virus [2]; Zika virus, Vero C1008, Baseline response 0 %, EC90 CI (lower) 6.665 uM, EC90 CI (upper) 20.693 uM, Hill slope 1.418, Maximum measured 92.41 %, Minimum measured 5.185 %, R squared 0.921): 11.7 µM
EC90 (Zika virus [3]; EC90 CI (lower) 0.301 uM, EC90 CI (upper) 7.202 uM, Hill slope -3.742, Maximum measured 131.957 %, Maximum response 100 %, Minimum measured 2.652 %, R squared 0.767): 4.77 µM
EC90 (Zika virus [3]; Hill slope -0.425, Maximum measured 98.697 %, Maximum response 100 %, Minimum measured 17.927 %, R squared 0.629): > 10 µM
EC90 (Zika virus [3]; Hill slope -1.446, Maximum measured 54.457 %, Maximum response 40 %, Minimum measured 5.333 %, R squared 0.69): > 10 µM
EC90 (Zika virus [3]; Hill slope -2.191, Maximum measured 87.134 %, Maximum response 60 %, Minimum measured 12.691 %, R squared 0.704): > 10 µM
EC50 (dengue virus type 2 [4]; VeroE6/TMPRSS2): 0.045 µM
EC90 (dengue virus type 2 [4]; VeroE6/TMPRSS2, Baseline response 43.084 %, EC90 CI (lower) 0 uM, EC90 CI (upper) 0 uM, Hill slope -11.259, Maximum measured 119.711 %, Maximum response 115.226 %, Minimum measured 27.831 %, R squared 0.402): 0.055 µM
EC90 (dengue virus type 2 [5]; Baseline response 0 %, Hill slope -0.711, Maximum measured 113.708 %, Maximum response 100 %, Minimum measured 27.128 %, P-gp concentration 2 uM, R squared 0.834, P-gp inhibitor Elacidar): > 10 µM
EC90 (dengue virus type 2 [5]; Dengue virus, VeroE6/TMPRSS2): > 10 µM
EC50 (dengue virus type 2 [5]; veroe6/tmprss2): 8.6 µM and 2.59 µM
EC50 (Zika virus [6]; VeroE6/TMPRSS2): > 10 µM
EC90 (Zika virus [6]; VeroE6/TMPRSS2, Baseline response 0 %, Hill slope -0.033, Maximum measured 93.578 %, Maximum response 100 %, Minimum measured 41.57 %, R squared 0.011): > 10 µM
EC90 (Zika virus [7]; EC90 CI (lower) 1.33 uM, EC90 CI (upper) 21.491 uM, Hill slope 2.016, Maximum measured 119.759 %, Minimum measured 49.499 %, P-gp concentration 500 nM, R squared 0.708): 5.34 µM
EC90 (Zika virus [7]; EC90 CI (lower) 2.362 uM, EC90 CI (upper) 73.078 uM, Hill slope 2.992, Maximum measured 157.756 %, Minimum measured 1.417 %, P-gp concentration 500 nM, R squared 0.838): 13.1 µM
EC90 (Zika virus [7]; EC90 CI (lower) 3.073 uM, EC90 CI (upper) 52.816 uM, Hill slope 2.304, Maximum measured 128.398 %, Minimum measured 15.752 %, P-gp concentration 500 nM, R squared 0.861): 12.7 µM
EC90 (Zika virus [7]; EC90 CI (lower) 6.142 uM, EC90 CI (upper) 39.815 uM, Hill slope 2.116, Maximum measured 119.257 %, Minimum measured 3.222 %, P-gp concentration 500 nM, R squared 0.943): 15.6 µM
EC90 (Zika virus [7]; EC90 CI (lower) 6.409 uM, EC90 CI (upper) 24.739 uM, Hill slope 3.129, Maximum measured 131.405 %, Minimum measured -2.605 %, P-gp concentration 500 nM, R squared 0.913): 12.6 µM
EC90 (Zika virus [7]; EC90 CI (lower) 8.9 uM, EC90 CI (upper) 38.162 uM, Hill slope 2.016, Maximum measured 114.801 %, Minimum measured 5.397 %, P-gp concentration 500 nM, R squared 0.961): 18.4 µM
EC90 (Zika virus [7]; EC90 CI (lower) 10.323 uM, EC90 CI (upper) 42.716 uM, Hill slope 1.659, Maximum measured 113.143 %, Minimum measured 4.385 %, P-gp concentration 100 nM, R squared 0.967): 21 µM
EC90 (Zika virus [7]; EC90 CI (lower) 14.003 uM, EC90 CI (upper) 30.102 uM, Hill slope 3.316, Maximum measured 112.736 %, Minimum measured -6.737 %, P-gp concentration 500 nM, R squared 0.984): 20.5 µM
EC90 (Zika virus [7]; EC90 CI (lower) 17.062 uM, EC90 CI (upper) 43.343 uM, Hill slope 2.491, Maximum measured 123.53 %, Minimum measured -2.699 %, P-gp concentration 500 nM, R squared 0.955): 27.2 µM
EC90 (Zika virus [7]; EC90 CI (lower) 18.425 uM, EC90 CI (upper) 28.103 uM, Hill slope 2.492, Maximum measured 115.262 %, Minimum measured 4.379 %, P-gp concentration 500 nM, R squared 0.954): 22.8 µM
EC90 (Zika virus [7]; EC90 CI (lower) 23.748 uM, EC90 CI (upper) 39.727 uM, Hill slope 2.255, Maximum measured 100.144 %, Minimum measured -8.11 %, P-gp concentration 500 nM, R squared 0.982): 30.7 µM
EC90 (Zika virus [7]; EC90 CI (lower) 28.979 uM, EC90 CI (upper) 80.3 uM, Hill slope 3.379, Maximum measured 85.565 %, Minimum measured -8.762 %, P-gp concentration 500 nM, R squared 0.96): 48.2 µM
EC90 (Zika virus [7]; Hill slope 1.338, Maximum measured 86.023 %, Minimum measured -1.473 %, P-gp concentration 500 nM, R squared 0.993): > 50 µM
